Like-named read-outs stand apart in the source and are kept apart here.
What was measured:
human DGKζ = target: T1, human DGKζ (Homo sapiens, UniProt Q13574); assay: DGKζ LIPGLO assay (extruded liposome substrate), in vitro DGK inhibition; type: biochemical; settings: read-out: DGKz LIPGLO IC50
T1 construct: TVMV protease cleavage site (C); Hexa-His (C); made in house; host or cells: Sf9 insect cells (baculovirus, Bac-to-Bac)

human DGKα = target: T2, human DGKα (Homo sapiens, UniProt P23743); assay: DGKα LIPGLO assay (extruded liposome substrate), in vitro DGK inhibition; type: biochemical; settings: read-out: DGKa LIPGLO IC50
T2 construct: TVMV protease cleavage site (C); Hexa-His (C); made in house; host or cells: Sf9 insect cells (baculovirus, Bac-to-Bac)

Human venous whole blood = assay: Human whole blood IFN-γ assay; type: cell-based; settings: human whole blood, read-out: INFg Whole Blood Normalized Agonist EC50;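 note: blood from healthy donors exposed to compound for 1 h before stimulation with anti-CD3 and anti-CD28 at 1 µg/mL each, IFN-γ quantified in supernatant by AlphaLISA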
Protocol: Human Whole Blood IFN-γ Assay
Human venous whole blood (22.5 μL per well), obtained from healthy donors, was pre-treated with compounds for one hour at 37° C. in a humidified 95% air/5% CO2 incubator. The blood was stimulated with 2.5 μL anti-human CD3 and anti-CD28 mAb at a final concentration of 1 μg/mL each for 24 hours at 37° C. IFN-γ in the supernatants was measured using AlphLISA kit (Cat # AL217).

[1] = Homo sapiens, 24 h, normalized to 3 μM reference compound with anti-CD3 plus anti-CD28 as 100% activation
[2] = normalized to 3 μM reference compound with anti-CD3 plus anti-CD28 as 100% activation
[3] = anti-CD3 plus anti-CD28, 24 hours, 3 μM reference compound = 100% activation
[4] = Homo sapiens, 24 h, anti-CD3 plus anti-CD28, 24 hours, 3 μM reference compound = 100% activation

T1 sequence (Q13574 with tags, fused parts or gaps isoform Q13574-4): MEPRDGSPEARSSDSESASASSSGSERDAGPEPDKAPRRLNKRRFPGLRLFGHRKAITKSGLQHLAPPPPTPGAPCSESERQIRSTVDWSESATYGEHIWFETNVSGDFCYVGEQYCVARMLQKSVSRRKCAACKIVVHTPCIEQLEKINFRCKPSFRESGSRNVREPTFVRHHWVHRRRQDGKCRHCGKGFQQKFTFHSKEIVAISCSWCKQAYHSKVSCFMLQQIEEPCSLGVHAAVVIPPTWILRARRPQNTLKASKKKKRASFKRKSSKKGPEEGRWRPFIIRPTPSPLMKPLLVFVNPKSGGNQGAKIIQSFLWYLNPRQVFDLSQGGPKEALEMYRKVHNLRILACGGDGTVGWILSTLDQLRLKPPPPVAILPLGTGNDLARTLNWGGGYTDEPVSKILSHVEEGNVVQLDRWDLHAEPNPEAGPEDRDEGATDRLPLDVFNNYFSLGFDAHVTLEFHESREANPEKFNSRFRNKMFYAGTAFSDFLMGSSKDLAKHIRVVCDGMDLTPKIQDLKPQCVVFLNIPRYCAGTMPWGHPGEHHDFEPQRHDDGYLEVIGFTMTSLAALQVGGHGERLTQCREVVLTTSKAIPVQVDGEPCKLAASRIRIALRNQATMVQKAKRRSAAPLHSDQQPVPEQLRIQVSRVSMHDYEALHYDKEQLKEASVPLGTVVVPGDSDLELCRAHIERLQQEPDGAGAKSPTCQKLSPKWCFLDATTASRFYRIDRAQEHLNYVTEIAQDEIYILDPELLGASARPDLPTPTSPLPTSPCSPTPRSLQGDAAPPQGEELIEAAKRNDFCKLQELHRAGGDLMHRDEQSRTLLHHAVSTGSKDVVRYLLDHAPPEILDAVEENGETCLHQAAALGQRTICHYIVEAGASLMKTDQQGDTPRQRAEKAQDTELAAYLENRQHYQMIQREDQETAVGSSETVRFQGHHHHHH
T2 sequence (P23743 with tags, fused parts or gaps): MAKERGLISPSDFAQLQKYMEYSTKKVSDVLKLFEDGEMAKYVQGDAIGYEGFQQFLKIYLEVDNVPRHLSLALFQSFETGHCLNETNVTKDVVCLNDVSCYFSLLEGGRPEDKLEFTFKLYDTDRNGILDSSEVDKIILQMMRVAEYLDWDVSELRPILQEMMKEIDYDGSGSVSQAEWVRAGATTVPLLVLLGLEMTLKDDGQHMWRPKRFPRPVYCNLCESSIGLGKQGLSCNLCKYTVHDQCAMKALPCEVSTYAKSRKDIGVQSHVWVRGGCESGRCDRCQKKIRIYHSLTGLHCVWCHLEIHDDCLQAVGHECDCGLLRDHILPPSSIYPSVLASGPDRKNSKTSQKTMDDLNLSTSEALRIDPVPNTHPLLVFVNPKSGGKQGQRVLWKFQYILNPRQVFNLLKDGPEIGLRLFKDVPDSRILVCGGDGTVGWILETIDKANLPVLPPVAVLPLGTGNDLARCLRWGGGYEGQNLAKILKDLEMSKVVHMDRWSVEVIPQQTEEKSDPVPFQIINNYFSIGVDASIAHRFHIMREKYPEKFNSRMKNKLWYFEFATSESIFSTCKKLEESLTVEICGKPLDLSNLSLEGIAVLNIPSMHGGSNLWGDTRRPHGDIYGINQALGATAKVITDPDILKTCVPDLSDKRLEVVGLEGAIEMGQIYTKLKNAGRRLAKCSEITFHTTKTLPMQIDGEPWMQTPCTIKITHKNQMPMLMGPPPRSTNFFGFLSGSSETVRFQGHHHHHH

Row | SMILES | IC50 (human DGKζ; liposome (LIPGLO) assay) [nM] | IC50 (human DGKα; liposome (LIPGLO) assay) [nM] | EC50 (Human venous whole blood; [1]) [nM] | EC50 (Human venous whole blood; [2]) [nM] | IC50 (human DGKζ; DGKζ liposome (LIPGLO) assay) [nM] | IC50 (human DGKα; DGKα liposome (LIPGLO) assay) [nM] | EC50 (Human venous whole blood; [3]) [nM] | EC50 (Human venous whole blood; [4]) [nM]
1 | C[C@H]1CN(C(c2ccc(F)cc2)c2ccc(F)cc2)[C@H](CNS(C)(=O)=O)CN1c1cc(=O)n(C)c2ccc(C#N)nc12 [Example 1410, N-(((2S,5S)-1-(bis(4-fluorophenyl)methyl)-4-(6-cyano-1-methyl-2-oxo-1,2-dihydro-1,5-naphthyridin-4-yl)-5-methylpiperazin-2-yl)methyl)methanesulfonamide] | 98 | 22000 | 1800 | – | – | – | – | –
2 | C[C@@H]1CN(c2cc(=O)n(C)c3ccc(C#N)nc23)[C@@H](C)CN1C(c1ccc(F)cc1)c1cccc(N2CCOCC2)c1 (single isomer, unassigned) [Example 672] | 1700 | 92000 | – | 9500 | – | – | – | –
3 | COc1ncccc1C(c1ccc(F)cc1)N1CCN(c2c(C#N)c(=O)n(C)c3ccc(C#N)nc23)C[C@H]1C (single isomer, unassigned) [Example 894] | – | – | – | – | 680 | 8600 | 4000 | –
4 | [2H]C(C)(c1ccc(F)cc1)N1C[C@H](C)N(c2c(F)c(=O)n(C)c3ccc(C#N)nc23)C[C@H]1C (single isomer, unassigned) [Example 424] | 37000 | 290 | – | 16000 | – | – | – | –
5 | C[C@@H]1CN(c2cc(=O)n(C)c3ccc(C#N)nc23)[C@@H](C)CN1C(c1ccc(F)cc1)c1ccnc(C(C)(C)C)n1 (single isomer, unassigned) [Example 408] | 800 | 7500 | 800 | – | – | – | – | –
6 | CC[C@@H]1CN(c2cc(=O)n(C)c3ccc(C#N)nc23)[C@@H](C)CN1C(C)c1ccc(C2CC2)cc1F (single isomer, unassigned) [Example 1341] | 1400 | 4400 | – | 2000 | – | – | – | –
7 | COCCOc1cc(C(C)N2C[C@H](C)N(c3cc(=O)n(C)c4ccc(C#N)nc34)C[C@H]2C)ccc1OC (single isomer, unassigned) [Example 1302] | 6600 | 130000 | 20000 | – | – | – | – | –
8 | CC(c1cccc(C(F)F)n1)N1C[C@H](C)N(c2cc(=O)n(C)c3ccc(C#N)nc23)C[C@H]1C (stereo partly drawn) [Example 1222] | 110 | 16 | 520 | – | – | – | – | –
9 | CC[C@@H]1CN(c2cc(=O)n(C)c3ccc(C#N)nc23)[C@@H](C)CN1C(C)c1ccc(C#N)cc1 (single isomer, unassigned) [Example 1345] | 75 | 41 | – | 480 | – | – | – | –
10 | COc1cc(F)c(C(C)N2C[C@H](C)N(c3cc(=O)n(C)c4ccc(C#N)nc34)C[C@H]2C)c(F)c1 (stereo partly drawn) [Example 1242] | 19 | 200 | 180 | – | – | – | – | –
11 | CC[C@H]1CN(C(c2ccc(Cl)cc2)c2ccc(Cl)cc2)[C@H](CC)CN1c1cc(=O)n(C)c2ccc(C#N)nc12 [Example 1032] | 280 | 310 | 280 | – | – | – | – | –
12 | C[C@@H]1CN(c2cc(=O)n(C)c3ccc(C#N)nc23)[C@@H](C)CN1C(c1ccc(OC(F)(F)F)cc1)c1ccc(F)cn1 (single isomer, unassigned) [Example 466] | 1800 | 190 | – | 5500 | – | – | – | –
13 | Cc1cc(C(C)N2C[C@H](C)N(c3cc(=O)n(C)c4ccc(C#N)nc34)C[C@H]2C)no1 (single isomer, unassigned) [Example 649] | 3400 | 3600 | 20000 | – | – | – | – | –
14 | CCC(c1ccc(OC(F)(F)F)cc1F)N1C[C@H](C)N(c2cc(=O)n(C)c3ccc(C#N)nc23)C[C@H]1C (single isomer, unassigned) [Example 440] | 320 | 81 | – | 1000 | – | – | – | –
15 | CC[C@H]1CN(C(C)c2ccc(F)cc2F)[C@H](CC)CN1c1cc(=O)n(C)c2ccc(C#N)nc12 (single isomer, unassigned) [Example 1055] | 16 | 17 | – | 16 | – | – | – | –
16 | C[C@@H]1CN(c2cc(=O)n(C)c3ccc(C#N)nc23)[C@@H](C)CN1CC1CCOCC1 [Example 623] | > 250000 | 130000 | 20000 | – | – | – | – | –
17 | C[C@@H]1CN(c2cc(=O)n(C)c3ccc(C#N)nc23)[C@@H](C)CN1C(c1ccc(F)cc1)c1cnn(C)c1 (single isomer, unassigned) [Example 703] | 2500 | 4000 | – | 1200 | – | – | – | –
18 | CC(c1ccc(C#N)cc1)N1CCN(c2c(C#N)c(=O)n(C)c3ccc(C#N)nc23)C[C@H]1C (stereo partly drawn) [Example 955] | – | – | – | – | 3000 | 220 | 20000 | –
19 | C[C@@H]1CN(c2c(C#N)c(=O)n(C)c3ccc(C#N)nc23)[C@@H](C)CN1C(c1ccc(F)cc1)c1ccon1 (single isomer, unassigned) [Example 851] | – | – | – | – | 27000 | 1300 | 20000 | –

Row | SMILES | IC50 (human DGKζ; liposome (LIPGLO) assay) [nM] | IC50 (human DGKα; liposome (LIPGLO) assay) [nM] | EC50 (Human venous whole blood; [1]) [nM] | EC50 (Human venous whole blood; [2]) [nM] | IC50 (human DGKζ; DGKζ liposome (LIPGLO) assay) [nM] | IC50 (human DGKα; DGKα liposome (LIPGLO) assay) [nM] | EC50 (Human venous whole blood; [3]) [nM] | EC50 (Human venous whole blood; [4]) [nM]
20 | C[C@@H]1CN(c2c(F)c(=O)n(C)c3ccc(C#N)nc23)[C@@H](C)CN1C(c1ccc(F)cc1)c1cccc(F)c1 (single isomer, unassigned) [Example 330] | 500 | 260 | – | 1200 | – | – | – | –
21 | CC[C@H]1CN(C(c2ccc(F)cc2)c2nc(C3CC3)cs2)[C@H](CC)CN1c1cc(=O)n(C)c2ccc(C#N)nc12 (stereo partly drawn) [Example 1067] | 47 | 79 | 11 | – | – | – | – | –
22 | Cc1cc(CN2CCN(c3c(C#N)c(=O)n(C)c4ccc(C#N)nc34)C[C@H]2C)ccc1F [Example 995] | – | – | – | – | 5600 | 3200 | – | 2500
23 | Cc1ccc(C(c2ccc(C#N)cc2)N2C[C@H](C)N(c3cc(=O)n(C)c4ccc(C#N)nc34)C[C@H]2C)nc1 (single isomer, unassigned) [Example 361] | 1100 | 210 | – | 1100 | – | – | – | –
24 | COC(=O)c1ccc(C(C)N2CCN(c3c(C#N)c(=O)n(C)c4ccc(C#N)nc34)C[C@H]2C)cc1 (stereo partly drawn) [Example 981] | – | – | – | – | 28000 | 2100 | – | 13000
25 | C[C@@H]1CN(c2c(C#N)c(=O)n(C)c3ccc(C#N)nc23)CCN1C(c1ccc(F)cc1)c1cocn1 (stereo partly drawn) [Example 1022] | – | – | – | – | 12000 | 2900 | – | 2500
26 | CC(c1c(F)cccc1F)N1C[C@H](C)N(c2c(C#N)c(=O)n(C)c3ccc(C#N)nc23)C[C@H]1C (single isomer, unassigned) [Example 780] | – | – | – | – | 31000 | 1500 | – | 14000
27 | C[C@@H]1CN(c2c(C#N)c(=O)n(C)c3ccc(C#N)nc23)[C@@H](C)CN1C(c1ccc(Cl)cc1)c1ncccc1F (single isomer, unassigned) [Example 822] | – | – | – | – | 13000 | 2700 | 3200 | –
28 | CC(c1csc(C(F)(F)F)n1)N1C[C@H](C)N(c2cc(=O)n(C)c3ccc(C#N)nc23)C[C@H]1C (single isomer, unassigned) [Example 1273] | 360 | 180 | 1700 | – | – | – | – | –
29 | CC(c1ccc2c(c1)OC(F)(F)O2)N1C[C@H](C)N(c2cc(=O)n(C)c3ccc(C#N)nc23)C[C@H]1C (single isomer, unassigned) [Example 654] | 130 | 2000 | – | 400 | – | – | – | –
30 | CC[C@@H]1CN(c2cc(=O)n(C)c3ccc(C#N)nc23)[C@@H](C)CN1C(C)c1ccc(OC(F)F)cc1 (stereo partly drawn) [Example 1343] | 16 | 4.4 | 51 | – | – | – | – | –
31 | C[C@@H]1CN(c2cc(=O)n(C)c3ccc(C#N)nc23)[C@@H](C)CN1C(c1ccc(Cl)cc1)c1cc(F)ccn1 (stereo partly drawn) [Example 446, 8-((2S,5R)-4-((4-chlorophenyl)(4-fluoropyridin-2-yl)methyl)-2,5-dimethylpiperazin-1-yl)-5-methyl-6-oxo-5,6-dihydro-1,5-naphthyridine-2-carbonitrile] | 2100 | 1700 | 1100 | – | – | – | – | –
32 | COCCOc1cc(C(C)N2C[C@H](C)N(c3cc(=O)n(C)c4ccc(C#N)nc34)C[C@H]2C)ccc1C#N (single isomer, unassigned) [Example 1320] | 160 | 75000 | 7000 | – | – | – | – | –
33 | CC[C@@H]1CN(c2cc(=O)n(C)c3ccc(C#N)nc23)[C@@H](CC)CN1Cc1ccc2c(c1)OC(F)(F)O2 [Example 1063] | 1800 | 1100 | 430 | – | – | – | – | –
34 | C[C@@H]1CN(c2cc(=O)n(C)c3ccc(C#N)nc23)[C@@H](C)CN1C(c1ccc(F)cc1)c1ccnc(C(C)(C)C)n1 (single isomer, unassigned) [Example 409] | 53 | 5300 | – | 430 | – | – | – | –
35 | C[C@@H]1CN(c2c(C#N)c(=O)n(C)c3ccc(C#N)nc23)CCN1Cc1ccccc1C(F)(F)F [Example 1014] | – | – | – | – | 1900 | 1300 | – | 20000
36 | C[C@@H]1CN(c2c(C#N)c(=O)n(C)c3ccc(C#N)nc23)CCN1C(c1ccc(F)cc1)c1ccc(F)cn1 (stereo partly drawn) [Example 902] | – | – | – | – | 2600 | 250 | 2200 | –
37 | CC(c1ccc(OC(F)(F)F)cc1)N1C[C@H](C)N(c2c(C#N)c(=O)n(C)c3ccc(C#N)nc23)C[C@H]1C (single isomer, unassigned) [Example 801] | – | – | – | – | 2200 | 68 | – | 13000
38 | CCc1ccccc1C(c1ccc(F)cc1)N1C[C@H](C)N(c2c(C#N)c(=O)n(C)c3ccc(C#N)nc23)C[C@H]1C (single isomer, unassigned) [Example 809] | – | – | – | – | 2300 | 140000 | – | 20000

— patent US10669272B2, “Substituted naphthyridinone compounds useful as T cell activators” (BRISTOL-MYERS SQUIBB COMPANY, priority 2018, dated 2020)
